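GI50 = concentration required for 50% inhibition of growth. The concentration for full growth arrest is given as TGI.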
What was measured:
Test in all cases: growth of human tumour cells (NCI), 384-well format
OVCAR-4 ovarian = tested on: OVCAR-4 ovarian
HT29 colon = tested on: HT29 colon
MDA-MB-435 melanoma = tested on: MDA-MB-435 melanoma
OVCAR-5 ovarian = tested on: OVCAR-5 ovarian
SF-539 CNS = tested on: SF-539 CNS
LOX IMVI melanoma = tested on: LOX IMVI melanoma
OVCAR-3 ovarian = tested on: OVCAR-3 ovarian
TK-10 renal = tested on: TK-10 renal
T-47D breast = tested on: T-47D breast
SW-620 colon = tested on: SW-620 colon
NCI-H23 lung = tested on: NCI-H23 lung
SNB-75 CNS = tested on: SNB-75 CNS
CAKI-1 renal = tested on: CAKI-1 renal
NCI-H322M lung = tested on: NCI-H322M lung
EKVX NSCLC = tested on: EKVX NSCLC
PC-3 prostate = tested on: PC-3 prostate
MDA-MB-468 breast = tested on: MDA-MB-468 breast
A498 renal = tested on: A498 renal
KM12 colon = tested on: KM12 colon
SNB-19 CNS = tested on: SNB-19 CNS
SK-MEL-5 melanoma = tested on: SK-MEL-5 melanoma
UACC-257 melanoma = tested on: UACC-257 melanoma
HOP-62 NSCLC = tested on: HOP-62 NSCLC
A549 NSCLC = tested on: A549 NSCLC
786-0 renal = tested on: 786-0 renal
SK-OV-3 ovarian = tested on: SK-OV-3 ovarian
NCI-H460 NSCLC = tested on: NCI-H460 NSCLC
HS 578T breast = tested on: HS 578T breast

## COc1cc2c(cc1O)CCN[C@]21CS[C@@H]2c3c(OC(C)=O)c(C)c4c(c3[C@H](COC1=O)N1[C@@H]2[C@H]2c3c(cc(C)c(OC)c3O)C[C@@H]([C@@H]1O)N2C)OCO4
OVCAR-4 ovarian
  GI50: 2770 pM
  TGI: 5980 pM
HT29 colon
  GI50: 117 pM
  TGI: 245 pM
MDA-MB-435 melanoma
  GI50: 614 pM
  TGI: 1090 pM
OVCAR-5 ovarian
  GI50: 983 pM
  TGI: 9360 pM
SF-539 CNS
  GI50: 76.5 pM
  TGI: 185 pM
LOX IMVI melanoma
  GI50: 74.4 pM
  TGI: 234 pM
OVCAR-3 ovarian
  GI50: 227 pM
  TGI: 698 pM
TK-10 renal
  GI50: 2480 pM
  TGI: 6000 pM
T-47D breast
  GI50: 482 pM
  TGI: 2330 pM
SW-620 colon
  GI50: 1610 pM
  TGI: 3490 pM
NCI-H23 lung
  GI50: 94.9 pM
  TGI: 309 pM
SNB-75 CNS
  GI50: 95.2 pM
  TGI: 329 pM
CAKI-1 renal
  GI50: 497 pM
  TGI: 4250 pM
NCI-H322M lung
  GI50: 481 pM
  TGI: 1030 pM
EKVX NSCLC
  GI50: 583 pM
  TGI: 1280 pM
PC-3 prostate
  GI50: 396 pM
  TGI: 1540 pM
MDA-MB-468 breast
  GI50: 65.6 pM
  TGI: 147 pM
A498 renal
  GI50: 1180 pM
  TGI: 2610 pM
KM12 colon
  GI50: 1400 pM
  TGI: 3580 pM
SNB-19 CNS
  GI50: 840 pM
SK-MEL-5 melanoma
  GI50: 99.2 pM
  TGI: 345 pM
UACC-257 melanoma
  GI50: 546 pM
  TGI: 987 pM
HOP-62 NSCLC
  GI50: 65.7 pM
  TGI: 177 pM
A549 NSCLC
  GI50: 868 pM
  TGI: 2370 pM
786-0 renal
  GI50: 97.5 pM
  TGI: 568 pM
SK-OV-3 ovarian
  GI50: 2220 pM
  TGI: 7340 pM
NCI-H460 NSCLC
  GI50: 112 pM
  TGI: 454 pM
HS 578T breast
  GI50: 175 pM
  TGI: 555 pM

From PubChem BioAssay (NCI)
